# Measurements from US20250127906A1, “SMALL-MOLECULE DEGRADERS OF CDK8 AND CDK19” (University of South Carolina, priority 2021, published 2025).
# Tests used:
# [1] = test system: RPMI 8226 cells; experiment: Concentration dependence of RPMI 8226 growth inhibition; type: cell-based; details: RPMI 8226, 4-day growth inhibition
# [2] = biological target: T1, CDK8 (Homo sapiens, UniProt P49336); experiment: CDK8 degradation in HEK-293 cells (Western blot, normalized by GAPDH); type: cell-based; design: endogenous in cells; host or cells: HEK-293; details: HEK-293 cells
# Procedure: Table 1 presents the structures of 35 different chimeras that have been synthesized, together with their effects (at 1 μM or 0.3 μM concentrations) on CDK8 degradation in HEK-293 cells. The synthesis schemes of all the compounds are described below. CDK8 degradation was measured by Western blot analysis of RIPA lysates of HEK-293cells treated with or without the test compound for 24 hours, using antibodies against CDK8 (Santa Cruz sc-1521) and housekeeping protein GAPDH (Santa Cruz sc-32233) (loading control) Protein bands on immunoblotted PVDF membranes were visualized with Western Lighting Plus ECL detection reagent (Perkin Elmer, Waltham, MA, USA) using ChemiDoc Touch™ (Bio-Rad). Image processing and densitometry analysis were performed using ImageLab software (Bio-Rad) to quantify the CDK8 protein levels (normalized by GAPDH) and evaluate the effects of compound treatment.
# (§1) FIGS. 2F and 2G show the effects of different concentrations of potent Senexin C- and BI-1347-based PROTACs on CDK8 and CDK19 degradation in HEK-293cells. Based on these assays, we calculated DC50 values that correspond to PROTAC concentrations inducing degradation of CDK8 and CDK19 to the half of protein level in untreated cells. The corresponding CDK8 DC50 values were 46 nM for IA7843, 6.6 nM for IA7882 and 2.8 nM for IA7886, and CDK19 DC50 values were 1 μM for IA7843, 25 nM for IA7882 and 10 nM for IA7886.
# Target sequence in this assay (P49336 whole entry): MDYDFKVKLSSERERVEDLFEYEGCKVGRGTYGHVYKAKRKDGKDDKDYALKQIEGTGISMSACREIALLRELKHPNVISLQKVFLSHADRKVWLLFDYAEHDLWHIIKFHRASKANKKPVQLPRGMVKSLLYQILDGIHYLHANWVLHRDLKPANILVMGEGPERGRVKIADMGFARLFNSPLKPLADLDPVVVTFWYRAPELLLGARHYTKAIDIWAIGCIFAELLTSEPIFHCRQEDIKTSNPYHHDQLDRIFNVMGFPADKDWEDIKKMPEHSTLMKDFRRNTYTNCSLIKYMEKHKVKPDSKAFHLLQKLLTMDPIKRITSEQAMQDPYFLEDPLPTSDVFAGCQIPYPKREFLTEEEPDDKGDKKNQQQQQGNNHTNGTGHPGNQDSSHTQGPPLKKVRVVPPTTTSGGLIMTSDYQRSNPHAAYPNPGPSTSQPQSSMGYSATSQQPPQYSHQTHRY
# Target sequence in this assay (P24863 whole entry partner): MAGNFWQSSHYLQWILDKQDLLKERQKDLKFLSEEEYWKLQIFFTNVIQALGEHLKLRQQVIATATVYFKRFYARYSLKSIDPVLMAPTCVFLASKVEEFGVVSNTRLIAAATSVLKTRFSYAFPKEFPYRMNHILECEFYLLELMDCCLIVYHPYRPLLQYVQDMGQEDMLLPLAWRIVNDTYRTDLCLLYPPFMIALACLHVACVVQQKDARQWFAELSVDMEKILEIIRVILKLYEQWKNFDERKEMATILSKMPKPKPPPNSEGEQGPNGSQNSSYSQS
# [3] = biological target: T2, CDK19 (Homo sapiens, UniProt Q9BWU1); experiment: CDK19 degradation in HEK-293 cells (Western blot); type: cell-based; design: PROTACs on CDK8 and CDK19 degradation in HEK-293cells; endogenous in cells; host or cells: HEK-293; details: concentration degrading CDK19 to half of level in untreated cells
# Description: Furthermore, the degradation of both CDK8 and CDK19 by the PROTACs is also seen to decrease the levels of their binding partner cyclin C (CCNC) (FIG. 2B, D, E), which is known to be protected from proteolytic degradation by its interaction with CDK8 (Barette et al., 2001).
# as §1
# Target sequence in this assay (Q9BWU1 whole entry): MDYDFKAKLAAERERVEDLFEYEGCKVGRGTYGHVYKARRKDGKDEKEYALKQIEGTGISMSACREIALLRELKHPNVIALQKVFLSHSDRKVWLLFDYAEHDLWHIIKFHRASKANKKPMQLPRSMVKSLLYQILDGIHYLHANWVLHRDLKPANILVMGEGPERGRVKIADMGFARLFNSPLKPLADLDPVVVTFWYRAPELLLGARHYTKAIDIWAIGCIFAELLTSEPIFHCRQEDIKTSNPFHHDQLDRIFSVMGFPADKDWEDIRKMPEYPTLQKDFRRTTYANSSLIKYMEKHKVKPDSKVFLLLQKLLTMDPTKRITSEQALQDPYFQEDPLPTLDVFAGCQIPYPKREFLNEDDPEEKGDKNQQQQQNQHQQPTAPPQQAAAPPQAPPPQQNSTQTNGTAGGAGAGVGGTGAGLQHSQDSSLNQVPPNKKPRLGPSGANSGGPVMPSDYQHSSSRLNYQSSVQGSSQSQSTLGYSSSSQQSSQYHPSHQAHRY
# Target sequence in this assay (P24863 whole entry partner): as the sequence (P24863 whole entry partner) above
# [4] = biological target: T3, CDK8 (Mus musculus, UniProt Q8R3L8); experiment: CDK8 protein level in CT26 tumors in Balb/c mice; type: in vivo; design: from tissue; host or cells: subcutaneous CT26 tumours in Balb/c female mice; details: oral gavage 20 mg/kg, 2, 8 or 24 hrs after dosing
# T3 sequence (Q8R3L8 1-464): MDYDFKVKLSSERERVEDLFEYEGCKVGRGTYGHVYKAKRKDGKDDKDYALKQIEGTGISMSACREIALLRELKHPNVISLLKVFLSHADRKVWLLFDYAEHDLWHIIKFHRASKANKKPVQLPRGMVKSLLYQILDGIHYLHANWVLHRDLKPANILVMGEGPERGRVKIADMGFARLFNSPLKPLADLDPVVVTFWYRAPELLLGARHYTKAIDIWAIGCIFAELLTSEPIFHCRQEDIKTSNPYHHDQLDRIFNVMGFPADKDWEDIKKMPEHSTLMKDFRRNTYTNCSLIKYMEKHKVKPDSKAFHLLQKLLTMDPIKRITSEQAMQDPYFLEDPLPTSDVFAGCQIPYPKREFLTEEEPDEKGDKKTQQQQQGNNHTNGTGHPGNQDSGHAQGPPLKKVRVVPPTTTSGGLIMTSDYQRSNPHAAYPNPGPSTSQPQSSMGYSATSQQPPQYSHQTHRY
# T3 sequence (Q62447 1-283 partner): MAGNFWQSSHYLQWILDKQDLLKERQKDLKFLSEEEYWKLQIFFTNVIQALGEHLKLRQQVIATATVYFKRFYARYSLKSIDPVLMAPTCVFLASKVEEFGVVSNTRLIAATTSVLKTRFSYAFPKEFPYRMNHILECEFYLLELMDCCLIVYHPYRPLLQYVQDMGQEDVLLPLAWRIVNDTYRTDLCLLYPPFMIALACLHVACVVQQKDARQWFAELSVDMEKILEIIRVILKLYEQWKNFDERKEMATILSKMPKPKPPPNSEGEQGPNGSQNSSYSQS
# Procedure: (§2) CT26 cells were injected subcutaneously into syngeneic Balb/c female mice and allowed to grow to 150˜200 mm^3. Tumor-bearing mice then received PROTACs IA7882 or IA7886 by oral gavage at 20 mg/kg in 30% propylene glycol/70% PEG-400 vehicle. Tumors were collected 2, 8 or 24 hrs after dosing and used to measure protein levels of CDK8, pS727 STAT1 and total STAT1 (by western blotting) and mRNA expression of CCL12, a gene that is inhibited by different CDK8/19 inhibitors in CT26 tumors in vivo (by QPCR).
# [5] = test system: CCL12; experiment: CCL12 mRNA expression in CT26 tumors in Balb/c mice (QPCR); type: in vivo; details: oral gavage 20 mg/kg, 2, 8 or 24 hrs after dosing
# Procedure: as §2
# [6] = biological target: T1, CDK8; experiment: CDK8 degradation in HEK-293 cells with CRISPR knockout of CCNC; type: cell-based; design: a derivative of HEK-293cells with CRISPR-mediated knockout of CCNC; endogenous in cells; host or cells: HEK-293 with CRISPR knockout of CCNC; details: HEK-293 CCNC-knockout cells, 24 hr treatment
# Description: (§3) This cell line, however, is unique in lacking Cyclin C (CCNC), the binding partner of CDK8/19. To test if the absence of CDK8-bound CCNC was responsible for the loss of IA7843 CDK8-degrading activity, we have tested the effect of IA7843 on a derivative of HEK-293cells with CRISPR-mediated knockout of CCNC.
# Target sequence in this assay (P49336 whole entry): as the sequence (P49336 whole entry) above
# [7] = biological target: T2, CDK19; experiment: CDK19 degradation in HEK-293 cells with CRISPR knockout of CCNC; type: cell-based; design: a derivative of HEK-293cells with CRISPR-mediated knockout of CCNC; endogenous in cells; host or cells: HEK-293 with CRISPR knockout of CCNC; details: HEK-293 CCNC-knockout cells, 24 hr treatment
# Description: as §3
# Target sequence in this assay (Q9BWU1 whole entry): as the sequence (Q9BWU1 whole entry) above
# [8] = Serum drug concentrations in CD-1 mice (LCMSMS); type: in vivo; details: female CD-1 mice, i.p. 15 mg/kg, 15 min and 1 hr
# Procedure: For preliminary evaluation of the bioavailability of the PROTACs, IA7882 and IA7886 were administered to female CD-1 mice via intraperitoneal (i.p.) injection at the dose of 15 mg/kg. Drug concentrations were measured by LCMSMS analysis of serum samples collected at 15 min and 1 hr time point.
# [9] = biological target: T1, CDK8; experiment: CDK8 degradation in Loucy T-cell leukemia cells lacking Cyclin C; type: cell-based; design: endogenous in cells; host or cells: Loucy; details: Loucy cells (lacking CCNC), 24 hr treatment
# Description: as §3
# Target sequence in this assay (P49336 whole entry): as the sequence (P49336 whole entry) above
# [10] = test system: pS727 STAT1 and total STAT1; experiment: pS727 STAT1 and total STAT1 in CT26 tumors in Balb/c mice; type: in vivo; details: oral gavage 20 mg/kg, 2, 8 or 24 hrs after dosing
# Procedure: as §2
# [11] = biological target: T2, CDK19; experiment: CDK19 degradation in Loucy T-cell leukemia cells lacking Cyclin C; type: cell-based; design: endogenous in cells; host or cells: Loucy; details: Loucy cells (lacking CCNC), 24 hr treatment
# Description: as §3
# Target sequence in this assay (Q9BWU1 whole entry): as the sequence (Q9BWU1 whole entry) above
# [12] = test system: Jurkat cells; experiment: Long-term growth of Jurkat cells under continuous treatment; type: cell-based, human; details: 300 nM continuous
# Procedure: (§4) The anti-proliferative effects of a PROTAC and a kinase inhibitor were compared in leukemia cell lines. In the long-term treatment experiment shown in FIG. 11A, Jurkat cells (0.1 million cells) were continuously treated with vehicle control (0.1% DMSO), 300 nM BI-1347 or 300 nM IA7886 for 53 days (each condition in biological triplicates). Every 7-8 days, live cells were counted using BioRAD TC20 Automated Cell Counter with trypan blue staining: 0.1 million live cells were passaged to a new T25 flask to propagate under the same treatment conditions. The survival fraction was calculated by dividing the accumulated number of drug-treated cells with the accumulated number of vehicle-treated cells. […] This sustained inhibition property of PROTAC was also observed in MV4-11, a leukemia cell line highly sensitive to CDK8/19 kinase inhibitors.
# [13] = test system: SK-MM-2 cells; experiment: SK-MM-2 multiple myeloma cell growth over 20 days continuous treatment; type: cell-based; details: BI1347 200 nM, Senexin C 1 μM, IA7886 200 nM, IA7843 1 μM
# Procedure: The following CDK8/19 kinase inhibitors were tested for their effects on MM cell lines over 20 days continuous treatment: CDK8/19 kinase inhibitors BI1347 (200 nM) and Senexin C (1 μM), BI1347-derived PROTAC IA7886 (200 nM) and Senexin C-derived PROTAC IA7843 (1 μM). 1-4 million cells were treated with vehicle control (0.1% DMSO), or CDK8/19 kinase inhibitors or PROTACs for 20 days. Every 4 days, cells were counted using BioRAD TC20 Automated Cell Counter with trypan blue staining, and the same number of cells were passaged to a new T25 flask to propagate under the same treatment conditions.
# [14] = test system: MV4-11 cells; experiment: Long-term growth of MV4-11 cells under continuous treatment; type: cell-based, human; details: MV4-11, 300 nM continuous
# Procedure: as §4
# [15] = test system: KMS-12-BM cells; experiment: Concentration dependence of KMS-12-BM growth inhibition (CCK-8 assay); type: cell-based; details: Homo sapiens, 96 h, over 4 days
# Procedure: Concentration dependence of KMS-12-BM growth inhibition over 4 days was determined for BI-1347 CDK8/19 kinase inhibitor and IA7886 PROTAC using CCK-8 assay (FIG. 13B).
# [16] = test system: Jurkat cells; experiment: Wash-off growth study in Jurkat cells; type: cell-based, human; details: pre-treated 200 nM for 8 days, then drug-free vs drug-containing media for 8 days
# Procedure: We also compared the stability of short-term growth inhibition induced by a PROTAC and a kinase inhibitor in a wash-off study in Jurkat cells. In the experiment shown in FIG. 11C, Jurkat cells were pre-treated with 200 nM BI-1347 or IA7886 for 8 days before removal of drug-containing media and further cultured in either drug-containing (200 nM) or drug-free media for 8 days before counting cell numbers. Removal of BI-1347 led to 7.1 fold increase of the cell number while removal of IA7886 increased the cell number only 1.8 fold (FIG. 11C).
# [17] = test system: CDK8/19-regulated genes; experiment: QPCR of CDK8/19-regulated genes in HEK-293 wild-type and CDK8/19 double-knockout cells; type: cell-based, human; details: for effect on expression of CDK8/19-regulated genes: 200 nM, 3-day treatment
# Procedure: CDK8/19 act as transcriptional regulators, and therefore we tested the effects of 3-day treatment with 200 nM PROTAC IA7886 along with 200 nM CDK8/19 kinase inhibitor BI-1347 on a series of CDK8/19-regulated genes, using QPCR.
# We have also compared the stability of transcriptional changes induced by a PROTAC and by a kinase inhibitor. In the experiment shown in FIG. 10A, HEK-293 cells were treated with 200 nM of BI-1347 or IA7886 for 3 days, and then the inhibitors were washed off and the restoration of transcriptional changes was monitored 24 hrs and 48 hrs after wash-off.
smiles,measurement,setting,value
"CN(C)C(=O)c1ccc(N2CCCN(c3ccnc4sc(C(N)=O)c(N)c34)CC2)cc1 [SNX631-6, reference compound]",IC50,[1],> 1000 nM
"O=C1CCC(N2C(=O)c3cccc(NCCOCCOCCOCCOCCC(=O)N4CCN(C(=O)Cn5cc(-c6ccc(-c7cncc8ccccc78)cc6)cn5)CC4)c3C2=O)C(=O)N1 (stereo not drawn) [IA7882, 2-(2,6-dioxo-3-piperidyl)-4-[2-[2-[2-[2-[3-[4-[2-[4-[4-(4-isoquinolyl)phenyl]pyrazol-1-yl]acetyl]piperazin-1-yl]-3-oxo-propoxy]ethoxy]ethoxy]ethoxy]ethylamino]isoindoline-1,3-dione]",% CDK8 remaining,"[2]; 24 hours, tested at 1 μM",12%
same,DC50,[2]; concentration degrading CDK8 to half of level in untreated cells,6.6 nM
same,DC50,[3],25 nM
same,CDK8 levels in tumor extracts,[4],decreased in most of the tumor extracts collected 2 hrs or 8 hrs after dosing
same,levels of CCL12 mRNA in tumors,[5],decreased in tumors treated with IA7882 or IA7886 2 hrs or 8 hrs (but not 24 hrs) after dosing
same,CDK8 degradation (in words),[6],efficiently degraded CDK8 and CDK19
same,CDK19 degradation (in words),[7],efficiently degraded CDK8 and CDK19
same,serum drug concentrations,[8],readily measurable and were higher for IA7882 than for IA7886
same,CDK8 degradation (in words),[9],efficiently degraded CDK8 and CDK19
same,pS727 STAT1 and total STAT1 in tumors,[10],decreased in most of the tumors collected 2 hrs or 8 hrs after dosing
same,CDK19 degradation (in words),[11],efficiently degraded CDK8 and CDK19
"CN(C)C(=O)Cn1cc(-c2ccc(-c3cncc4ccccc34)cc2)cn1 [BI-1347, reference compound]","growth inhibition, first two passages (14 days)",[12],had a stronger growth inhibition effect than the PROTAC IA7886
same,growth rates in later passages,[12]; up to 53 days,growth rates of BI-1347 treated cells were increasing
same,"growth inhibition over 20 days, order of efficacy",[13],BI1347<IA7886<Senexin C<IA7843
same,growth inhibition over 60 days,[14],strongly inhibited MV4-11 cells for the first 4 passages (33 days) but after that the cells became fully resistant to the kinase inhibitor
same,IC50,[15],> 1000 nM
same,increase of the cell number upon removal of drug,[16],7.1 fold
same,effect on expression of CDK8/19-regulated genes,[17]; CDK8/19 double-knockout (dKO) 293 cells,had no effect in dKO cells
same,stability of transcriptional changes after wash-off,"[17]; HEK-293, 200 nM for 3 days, then 24 hrs and 48 hrs after wash-off",largely maintained 24 hrs after wash-off but mostly disappeared 48 hrs after wash-off
same,effect on expression of CDK8/19-regulated genes,[17]; wild-type HEK-293 cells,had similar effects on the expression of the tested genes
